Experiments:
[1] = DLS size and polydispersity of hEPO mRNA lipid nanoparticles; format: physicochemical; conditions: hEPO mRNA LNP, Cationic Lipid:DMG-PEG2000:Cholesterol:DOPE=40:1.5:28.5:30, N/P ratio 4, Process A
Method: The lipid nanoparticles in the examples of the present invention were formulated using Process A of WO 2018/089801 (see, e.g., Example 1 and FIG. 1 of WO 2018/089801). Process A (“A”) relates to a conventional method of encapsulating mRNA by mixing mRNA with a mixture of lipids, without first pre-forming the lipids into lipid nanoparticles. In an exemplary process, an ethanol lipid solution and an aqueous buffered solution of mRNA were prepared separately. A solution of mixture of lipids (cationic lipid, helper lipids, zwitterionic lipids, PEG lipids etc.) was prepared by dissolving lipids in ethanol. The mRNA solution was prepared by dissolving the mRNA in citrate buffer. Then, these two solutions were mixed using a pump system. In some instances, the two solutions were mixed using a gear pump system. In certain embodiments, the two solutions were mixing using a ‘T’ junction (or “Y” junction). The mixture was then purified by diafiltration with a TFF process. The resultant formulation concentrated and stored at 2-8° C. until further use.
(§1) Lipid nanoparticle formulations of Table 1 were prepared by Process A. More specifically, an ethanolic solution of a mixture of lipids including DMG-PEG-2000, cationic lipid, cholesterol, and phosphatidylethanolamine (DOPE) in a ratio of 1.5:40:28.5:30 were combined with an aqueous buffered solution (1 mM Citrate and 150 mM NaCl) of target mRNA at an acidic pH (4.5) under controlled conditions to yield a dispersion of uniform lipid nanoparticles (LNPs). Upon ultrafiltration and diafiltration into the final buffer, the resulting nanoparticle dispersions were diluted to required concentration using the final buffer (10% Trehalose), sterile filtered and stored frozen at −80° C. until use.
All of the lipid nanoparticle formulations comprised hEPO mRNA and the different lipids in following mol % ratios: Cationic Lipid: DMG-PEG2000; Cholesterol:DOPE=40:1.5:28.5:30.
DLS measurements were performed using a Malvern Instruments Zetasizer with a backscattering detector angle of 173° and a 4-mW, 633-nm He—Ne laser (Worcestershire, UK). The samples were analyzed by diluting in 10% Trehalose and measuring the size and Poly dispersity Index (PDI) in an optical grade polystyrene cuvette.
The following lipid nanoparticles were formulated according to Example 51.
as §1, with “Table 3” for “Table 1”

[2] = RiboGreen assay, % encapsulation of mRNA in lipid nanoparticles; format: physicochemical; conditions: hEPO mRNA LNP, Cationic Lipid:DMG-PEG2000:Cholesterol:DOPE=40:1.5:28.5:30, N/P ratio 4, Process A
Source text: In embodiments, the lipid nanoparticle encapsulates a nucleic acid, optionally an mRNA encoding a peptide or protein. In embodiments, the peptide is an antigen. In embodiments, the lipid nanoparticle encapsulates an mRNA encoding a peptide or protein. As used herein, the phrase “encapsulation percentage” refers to the fraction of therapeutic agent (e.g. mRNA) that is effectively encapsulated within a liposomal-based vehicle (e.g. a lipid nanoparticle) relative to the initial fraction of therapeutic agent present in the lipid phase. In embodiments, the lipid nanoparticles have an encapsulation percentage for mRNA of at least 50%. In embodiments, the lipid nanoparticles have an encapsulation percentage for mRNA of at least 55%. In embodiments, the lipid nanoparticles have an encapsulation percentage for mRNA of at least 60%. In embodiments, the lipid nanoparticles have an encapsulation percentage for mRNA of at least 65%. In embodiments, the lipid nanoparticles have an encapsulation percentage for mRNA of at least 70%. In embodiments, the lipid nanoparticles have an encapsulation percentage for mRNA of at least 75%. In embodiments, the lipid nanoparticles have an encapsulation percentage for mRNA of at least 80%. In embodiments, the lipid nanoparticles have an encapsulation percentage for mRNA of at least 85%. In embodiments, the lipid nanoparticles have an encapsulation percentage for mRNA of at least 90%. In embodiments, the lipid nanoparticles have an encapsulation percentage for mRNA of at least 95%. In embodiments, the encapsulation percentage is calculated by performing the Ribogreen assay (Invitrogen) with and without the presence of 0.1% Triton-X 100.
The RiboGreen Assay is a fluorescence-based method for the determination of mRNA concentration (Total and Free) and % encapsulation using Quant-iT™ RiboGreen® RNA reagent in mRNA containing lipid nanoparticles.
• To each of the standards (Blank, mRNA-1, mRNA-2. mRNA-3, mRNA-4, mRNA-5) and Samples (free mRNA and total mRNA), add 1.0 mL of 200-fold Ribogreen Reagent Solution and gently mix by inversion. This is a 2× Dilution. • Add 200 μL of each standard and sample in triplicate using the reverse pipetting technique in a 96-well Costar Black with Clear Background Plate. Ensure no bubbles are present in the plate before the fluorescence reading. • Read the fluorescence signal using the below instrument parameters: • Read Type: Fluorescence, Bottom Read • Excitation: 485 nm; Cut-off: 515 nm; Emission: 530 nm • Plate Type: 96-well Costar Black with Clear Background
The average fluorescence from each calibration standard is plotted against the concentration to generate a linear calibration curve using the MS Excel software. The coefficient of determination (R^2) of calibration curve must be R^2>0.99.
[formula] • Where, • Y=average fluorescence value • m: slope • x: concentration (pg/mL) • c: y-intercept • Using the linear equation, calculate the concentration of free and total mRNA concentration in the test sample by replacing the y value in the equation with the average fluorescence value of each respective sample • Once the concentration is determined, the actual concentration in the sample can be back-calculated by multiplying the concentration in the test sample with the dilution factor (DF) as follows:
[formula] • Concentration of encapsulated mRNA can be determined by subtracting the concentration of free mRNA from the total mRNA. • % Encapsulation can then be calculated by taking the ratio of encapsulated mRNA over total mRNA and multiplying the result with 100.

[3] = system: Human erythropoietin (hEPO) levels in sera; assay: Delivery of hEPO mRNA by intramuscular administration of lipid nanoparticles; serum hEPO by ELISA; format: in vivo, Mouse; conditions: for in vivo hEPO protein production (FIG. 51): intramuscular delivery of hEPO mRNA using lipid nanoparticles comprising the compound, result in words; for hEPO 6 Hr (ng/mL) Mean / hEPO 24 Hr (ng/mL) Mean: serum, 0.1 μg/animal hEPO mRNA LNP, n=4; for hEPO 6 Hr (ng/mL) Mean: 6 hours post dose; for hEPO 24 Hr (ng/mL) Mean: 24 hours post dose
Method: WO2022/099003 A1 describes an in vivo assay for intramuscular administration (e.g. on page 46, paragraph [00206]). Further details of the intramuscular experiment performed in this application are provided below.
Treatment Regimen: On Day 1, animals from Groups 1-8 were dosed via intramuscular injection while under light isoflurane anesthesia according to the study design table above. Animals in Groups 2-8 were injected with EPO in the right leg only. Group 1 animals received saline control.
Interim Sample Collections: Interim whole blood (~50 μL) was collected by tail snip or saphenous vein at 6 hours post dose administration (±5%). Blood samples were collected into serum separator tubes, allowed to clot at room temperature for at least 10 minutes, centrifuged at ambient temperature at minimum 1000 g for 10 minutes and the serum was extracted. All serum samples were stored at nominally −70° C. until analysis hEPO by the Testing Facility. The results of the EPO analysis were included in the Data Submission.
Terminal Blood Collections: Whole blood was collected via cardiac puncture into serum separator tube, allowed to clot at room temperature for at least 10 minutes, centrifuged at ambient temperature at minimum 1000 g for 10 minutes and the serum was extracted. Serum samples were stored at nominally −70° C. until analyzed for hEPO by the Test Facility.
ELISA Assay: Human erythropoietin (hEPO) levels in sera samples were determined by ELISA kit (R&D systems, Cat #DEP-00) according to the manufactory instruction and the results were included in the Data Submission. The “shaker” protocol was used. The serum samples were diluted between 1:40 and 1:100.
The ability of the further exemplary lipid nanoparticles in Example 54 to deliver hEPO mRNA by intramuscular administration was tested in accordance with the experimental protocol set out in Example 52.

[4] = single IM injection, female BALB/cJ mice

| SMILES | PDI ([1]; Table 1) | Size (nm) ([1]; Table 1) | Encapsulation Percentage (%) ([2]; Table 1) | PDI ([1]; Table 3, further LNPs) | Size (nm) ([1]; Table 3, further LNPs) | Encapsulation Percentage (%) ([2]; Table 3, further LNPs) | in vivo hEPO protein production (FIG. 51) [3] | hEPO 6 Hr (ng/mL) Mean [3, 4] | hEPO 24 Hr (ng/mL) Mean [3, 4] | hEPO 6 Hr (ng/mL) Mean ([3]; second occasion, IM, mice) | hEPO 6 Hr (ng/mL) Mean ([3]; fourth occasion, IM, mice) |
| --- | --- | --- | --- | --- | --- | --- | --- | --- | --- | --- | --- |
| CCCCCCCCCCC(O)CN(CCCOC(=O)[C@H](Cc1c[nH]c2ccccc12)NC(=O)CCCN(CC(O)CCCCCCCCCC)CC(O)CCCCCCCCCC)CC(O)CCCCCCCCCC (stereo partly drawn) [Compound CI, 3-(bis(2-hydroxydodecyl)amino)propyl (4-(bis(2-hydroxydodecyl)amino)butanoyl)-L-tryptophanate] |  |  |  | 0.155 | 135 nm | 85% |  |  |  | 40.5 ng/mL |  |
| CCCCCCCCCCC(O)CN(CCCOC(=O)[C@H](CCc1ccccc1)NC(=O)CCCN(CC(O)CCCCCCCCCC)CC(O)CCCCCCCCCC)CC(O)CCCCCCCCCC (stereo partly drawn) [Compound XCVI, 3-(bis(2-hydroxydodecyl)amino)propyl (2S)-2-(4-(bis(2-hydroxydodecyl)amino)butanamido)-4-phenylbutanoate] |  |  |  | 0.166 | 123 nm | 85% |  |  |  |  | 37.3 ng/mL |

Continued, in another order:

| PDI ([1]; Table 1) | Size (nm) ([1]; Table 1) | Encapsulation Percentage (%) ([2]; Table 1) | PDI ([1]; Table 3, further LNPs) | Size (nm) ([1]; Table 3, further LNPs) | Encapsulation Percentage (%) ([2]; Table 3, further LNPs) | SMILES | in vivo hEPO protein production (FIG. 51) [3] | hEPO 6 Hr (ng/mL) Mean [3, 4] | hEPO 24 Hr (ng/mL) Mean [3, 4] | hEPO 6 Hr (ng/mL) Mean ([3]; second occasion, IM, mice) | hEPO 6 Hr (ng/mL) Mean ([3]; fourth occasion, IM, mice) |
| --- | --- | --- | --- | --- | --- | --- | --- | --- | --- | --- | --- |
| 0.124 | 106 nm | 78% |  |  |  | CCCCCCCCCCC(O)CN(CCCOC(=O)CCC(C)C(=O)OCCCN(CC(O)CCCCCCCCCC)CC(O)CCCCCCCCCC)CC(O)CCCCCCCCCC (centres unmarked) [XXXII] | high levels of in vivo hEPO protein production | 17.0 ng/mL | 10.3 ng/mL |  |  |
| 0.098 | 101 nm | 67% |  |  |  | CCCCCCCCCCC(O)CN(CCCCOC(=O)CN(C)CC(=O)OCCCCN(CC(O)CCCCCCCCCC)CC(O)CCCCCCCCCC)CC(O)CCCCCCCCCC (centres unmarked) [XIV] | high levels of in vivo hEPO protein production | 33.9 ng/mL | 18.3 ng/mL |  |  |
| 0.091 | 110 nm | 46% |  |  |  | CCCCCCCCC(O)CN(CCCOC(=O)CN(C)CC(=O)OCCCN(CC(O)CCCCCCCC)CC(O)CCCCCCCC)CC(O)CCCCCCCC (centres unmarked) [XII] | high levels of in vivo hEPO protein production | 35.0 ng/mL | 15.1 ng/mL |  |  |

Source: patent publication US20260216368A1, “BIS-ESTER AND AMIDE CATIONIC LIPIDS” (SANOFI PASTEUR INC., priority 2022, published 2026)
